In publication PMC6054074, “The medicinal thiosulfinates from garlic and Petiveria are not radical-trapping antioxidants in liposomes and cells, but lipophilic analogs are” (Chemical Science, 2015):
Like-named read-outs stand apart in the source and are kept apart here.

Biological target: T1, papain (Carica papaya, UniProt P00784)
T1 sequence (P00784 134-345): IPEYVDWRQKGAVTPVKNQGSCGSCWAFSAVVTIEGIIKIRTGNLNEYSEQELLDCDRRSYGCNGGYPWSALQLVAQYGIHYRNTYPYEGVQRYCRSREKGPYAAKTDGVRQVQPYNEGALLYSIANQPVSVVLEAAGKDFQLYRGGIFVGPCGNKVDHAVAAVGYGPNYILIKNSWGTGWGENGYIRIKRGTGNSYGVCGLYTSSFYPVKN
Assay: chromogenic protease assay (BAPNA, […] nm) after […] min preincubation of DTT-reduced papain with compound
Type: biochemical

Compound	IC50	IC50 (read-out: IC50)
C=CCS[S+]([O-])CC=C (stereo not drawn) [compound 1, allicin]	1200 ± 200 nM	
[O-][S+](Cc1ccccc1)SCc1ccccc1 (stereo not drawn) [compound 2, petivericin]		1100 ± 100 nM
CCCCCCc1ccc(CS[S+]([O-])Cc2ccc(CCCCCC)cc2)cc1 (stereo not drawn) [compound 4, hexylated petivericin]		1000 ± 100 nM
